Activity calls are given as the source filed them. The calls are words filed in the database; no cut-off is given here.
Tests used:
[1] = target: Coagulation factor IX (Homo sapiens) (UniProt P00740); assay: Inhibition of factor 9a at 300 uM
[2] = target: T1, Vitamin K-dependent protein C (Homo sapiens, UniProt P04070); assay: Inhibition of activated protein C
[3] = target: T2, Prothrombin (Homo sapiens, UniProt P00734); assay: Inhibition of factor 2a at 300 uM
[4] = target: T3, Coagulation factor XI (Homo sapiens, UniProt P03951); assay: Inhibition of factor 11a
T3 sequence (P03951 19-387 limits assumed): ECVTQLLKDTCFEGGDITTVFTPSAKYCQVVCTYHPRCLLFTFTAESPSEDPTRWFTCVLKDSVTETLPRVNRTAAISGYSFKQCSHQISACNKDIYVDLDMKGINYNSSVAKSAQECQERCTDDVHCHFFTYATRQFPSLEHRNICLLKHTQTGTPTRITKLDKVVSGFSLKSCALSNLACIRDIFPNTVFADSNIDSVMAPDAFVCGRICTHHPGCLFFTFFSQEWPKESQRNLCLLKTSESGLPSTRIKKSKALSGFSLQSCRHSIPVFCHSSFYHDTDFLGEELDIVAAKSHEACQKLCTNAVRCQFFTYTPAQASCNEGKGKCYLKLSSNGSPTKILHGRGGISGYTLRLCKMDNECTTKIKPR
T3 sequence (P03951 388-625 limits assumed): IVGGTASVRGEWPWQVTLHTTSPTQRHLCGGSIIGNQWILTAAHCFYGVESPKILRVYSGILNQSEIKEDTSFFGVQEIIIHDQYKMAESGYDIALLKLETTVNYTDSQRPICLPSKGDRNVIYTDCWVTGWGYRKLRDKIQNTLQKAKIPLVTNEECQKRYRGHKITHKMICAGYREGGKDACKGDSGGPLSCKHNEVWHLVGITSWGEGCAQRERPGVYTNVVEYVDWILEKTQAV

[5] = target: Trypsin (Homo sapiens, UniProt P07477+P07478+P35030); assay: Inhibition of human trypsin; type: protein assay
[6] = target: T2, Prothrombin; assay: Inhibition of factor 2a
[7] = target: T1, Vitamin K-dependent protein C; assay: Inhibition of activated protein C at 300 uM
[8] = target: T3, Coagulation factor XI; assay: Inhibition of factor 11a at 300 uM

T1 sequence (P04070 43-197 limits assumed): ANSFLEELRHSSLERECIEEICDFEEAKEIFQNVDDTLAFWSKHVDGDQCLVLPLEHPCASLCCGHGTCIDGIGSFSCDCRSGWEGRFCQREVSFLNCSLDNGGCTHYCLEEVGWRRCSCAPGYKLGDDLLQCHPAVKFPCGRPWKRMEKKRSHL
T1 sequence (P04070 212-461 limits assumed): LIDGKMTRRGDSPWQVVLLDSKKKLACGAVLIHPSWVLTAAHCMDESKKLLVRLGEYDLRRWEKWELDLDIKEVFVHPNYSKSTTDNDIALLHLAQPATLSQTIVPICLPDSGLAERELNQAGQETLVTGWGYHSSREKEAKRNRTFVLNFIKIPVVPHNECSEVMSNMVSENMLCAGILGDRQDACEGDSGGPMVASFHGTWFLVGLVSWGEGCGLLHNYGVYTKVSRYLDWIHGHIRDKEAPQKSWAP
Chain of Coagulation factor IX (Homo sapiens) (P00740 47-191 limits assumed): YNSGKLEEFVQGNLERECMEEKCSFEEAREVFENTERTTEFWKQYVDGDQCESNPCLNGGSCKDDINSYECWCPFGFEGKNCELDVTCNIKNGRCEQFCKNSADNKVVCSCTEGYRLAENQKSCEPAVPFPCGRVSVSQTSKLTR
Chain of Coagulation factor IX (Homo sapiens) (P00740 227-461 limits assumed): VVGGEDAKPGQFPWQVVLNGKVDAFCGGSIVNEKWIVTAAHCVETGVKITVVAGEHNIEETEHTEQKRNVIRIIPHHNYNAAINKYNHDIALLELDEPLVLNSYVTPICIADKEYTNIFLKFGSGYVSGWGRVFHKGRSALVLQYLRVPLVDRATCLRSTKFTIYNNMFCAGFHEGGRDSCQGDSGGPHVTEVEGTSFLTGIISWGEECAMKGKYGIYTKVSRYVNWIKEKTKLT

CC(C)C[C@@H]1NC(=O)[C@@H](C2CCCCC2)NC(=O)CC/C=C/Cc2[nH]c3ccc(Cl)cc3c2CNC1=O
inhibition [1]: inactive

C=CCCC(=O)N[C@@H](C(=O)N[C@@H](CC(C)C)C(=O)NCc1c(CC=C)[nH]c2ccc(Cl)cc12)C1CCCCC1
IC50 [2]: 284 µM
Kic [2]: 227 µM
inhibition [3]: inactive
IC50 [4]: 103 µM
Kic [4]: 51.6 µM
IC50 [5]: 2.17 µM
Kic [5]: 0.264 µM

CCCCCC(=O)NCC(=O)N[C@H](C(=O)N[C@@H]1C(=O)N[C@@H](CCC(N)=O)C(=O)N[C@H]2CC[C@@H](O)N(C2=O)[C@@H](Cc2ccccc2)C(=O)N(C)[C@@H](Cc2c[nH]c3ccccc23)C(=O)N[C@@H](C(C)C)C(=O)O[C@@H]1C)[C@@H](C)O [MICROPEPTIN 103]
IC50 [6]: 8.7 µM

O=C1Cn2c(Cl)cnc(c2=O)N[C@@H](Cc2ccccc2)CNCCCNCCc2ccc(Cl)cc2CN1
Ki [6]: 0.09 nM

CC(C)C[C@@H]1NC(=O)[C@@H](C2CCCCC2)NS(=O)(=O)CCCCCc2[nH]c3ccc(Cl)cc3c2CNC1=O
inhibition [3]: inactive
inhibition [7]: inactive
IC50 [4]: 176 µM
Kic [4]: 87.9 µM
IC50 [5]: 2.43 µM
Kic [5]: 0.296 µM

CC(C)C[C@@H]1NC(=O)[C@@H](C2CCCCC2)NC(=O)[C@H](c2ccccc2)C/C=C/Cc2[nH]c3ccc(Cl)cc3c2CNC1=O
IC50 [2]: 145 µM
Kic [2]: 116 µM
inhibition [3]: inactive
IC50 [4]: 136 µM
IC50 [5]: 0.26 µM
Kic [5]: 0.031 µM

C=CCc1[nH]c2ccc(Cl)cc2c1CNC(=O)[C@H](CC(C)C)NC(=O)[C@H](NC(=O)[C@@H](CC=C)c1ccccc1)C1CCCCC1
IC50 [2]: 103 µM
Kic [2]: 82.8 µM
inhibition [3]: inactive
IC50 [4]: 146 µM
Kic [4]: 73 µM
IC50 [5]: 0.16 µM
Kic [5]: 0.02 µM

C=CCCS(=O)(=O)N[C@@H](C(=O)N[C@@H](CC(C)C)C(=O)NCc1c(CC=C)[nH]c2ccc(Cl)cc12)C1CCCCC1
inhibition [8]: inactive
inhibition [3]: inactive
inhibition [7]: inactive
IC50 [5]: 1.16 µM
Kic [5]: 0.142 µM

NC(N)=NCCC[C@@H]1NC(=O)[C@@H]2CCCN2C(=O)[C@@H](NC=O)CNC(=O)/C=C/[C@H](Cc2ccc(O)cc2)NC(=O)[C@@H](Cc2ccccc2)NC(=O)C1=O [CYCLOTHEONAMIDE A]
IC50 [6]: 0.0015 µM

CO[C@H](COS(=O)(=O)[O-])C(=O)N[C@@H](C(=O)N1[C@H](C(=O)NCCC2=CC[N+](=C(N)N)C2)C[C@@H]2C[C@H](O)[C@@H](O)C[C@@H]21)[C@H](Cl)C(C)C [CHLORODYSINOSIN A]
IC50 [6]: 0.0057 µM

CC(C)C[C@@H]1NC(=O)[C@@H](C2CCCCC2)NS(=O)(=O)CC/C=C/Cc2[nH]c3ccc(Cl)cc3c2CNC1=O
IC50 [6]: 67.9 µM
Kic [6]: 10.6 µM
inhibition [7]: inactive
IC50 [4]: 768 µM
Kic [4]: 384 µM
IC50 [5]: 2.69 µM
Kic [5]: 0.328 µM

CC(C)C[C@@H]1NC(=O)[C@@H](C2CCCCC2)NC(=O)[C@H](c2ccccc2)CCCCc2[nH]c3ccc(Cl)cc3c2CNC1=O
inhibition [8]: inactive
inhibition [3]: inactive
inhibition [7]: inactive
IC50 [5]: 2.31 µM
Kic [5]: 0.281 µM

CC(C)C[C@@H]1NC(=O)[C@@H](C2CCCCC2)NC(=O)CCCCCc2[nH]c3ccc(Cl)cc3c2CNC1=O
IC50 [2]: 395 µM
Kic [2]: 316 µM
inhibition [8]: inactive
IC50 [6]: 10.6 µM
Kic [6]: 1.7 µM
IC50 [5]: 10 µM
Kic [5]: 1.22 µM
